Laboratory results from paper PMC9374667 (Communications Biology, 2022).
Several values for one entry are separate records, joined by “and”; a condition that tells them apart may be missing. Equal entries are not always repeated.

Tests used:
db/db mice [1] = experiment: Serum CHO, TG, FFA, LDL-C, HDL-C and ADPN in the fasted state; assay type: in vivo; set-up: FFA (Figure 4g) / LDL-C (Figure 4h) / HDL-C (Figure 4i) / ADPN (Figure 4j): unit not given here; conditions: db/db mice
Description: The serum was collected by centrifugation at 3000 × g at 4 °C for 15 min and stored at −80 °C until analysis. TG, TC, LDL-C, HDL-C, and FFA were routinely tested on a Chemray 240 automatic biochemical analyzer (Chemray 240, Shenzhen, China). Serum levels of mouse adiponectin, interleukin6 (IL-6), tumor necrosis factor-α (TNF-α) were measured using commercial enzyme-linked immunosorbent assay (ELISA) kits (Nanjing Jiancheng Bioengineering Institute, Nanjing, China) and according to the manufacturer’s instructions. The levels of IL-6, TNF-α in 3T3-L1 adipocyte culture supernatant were also detected by ELISA.

3T3-L1 adipocytes = experiment: Oil Red O staining and lipid quantification; assay type: cell-based, Murine; conditions: Figure 7b; 10μM BBR; replicates;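 note: treatment added on day 8 of adipocyte differentiation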
Description: Meanwhile, we conducted in vitro experiments to validate the role of BJ in adipocytes. […] These findings were similar to the results in vivo.
Murine 3T3-L1 preadipocytes were the kind gift of Prof. Wenbin Shang and Prof. Xizhong Yu (Nanjing University of Chinese Medicine, China). Cells were cultured in Dulbecco’s modified Eagle’s medium (DMEM) supplemented with 10% (vol/vol) fetal bovine serum (FBS), 1% (vol/vol) penicillin/streptomycin in an incubator at 37 °C and 5% CO2 (until confluent). Two days after the preadipocytes reached 100% confluency (designated day 0), the cells were cultured in DMEM with 10% FBS supplemented with IBMX (0.5 mM final concentration), DEX (1 μM final concentration), and insulin (10 μg/ml final concentration) for 3 days (days 0–3). Then the cells were cultured in a medium containing insulin (10 μg/ml final concentration) for another 3 days (days 3–6).
Lipid accumulation in differentiated adipocytes was observed by Oil Red O staining. The differentiated 3T3-L1 adipocytes were washed with PBS for 3 times and fixed with 4% paraformaldehyde for 30 min at room temperature. The fixed 3T3-L1 adipocytes were washed with PBS for 3 times and stained with Oil Red O solution at room temperature for 60 min. Stained lipid droplets were photographed and then eluted with 100% isopropanol stained Oil Red O. Finally, the optical density (OD) value of the eluent was measured at 510 nm wavelength with a microplate reader.

cAMP = cAMP levels in eWAT of db/db mice (isoproterenol); assay type: in vivo; set-up: cAMP levels in eWAT (Figure 4l): unit not given here
Description: The epididymal adipose tissue was dissected, the fresh adipose tissue was weighed and rapidly rinsed with PBS. The adipose tissue was cut and incubated with isoproterenol (10 μM) for 2 h, and homogenized in a cold cleavage buffer to prepare the adipose tissue homogenate. Then the homogenate was centrifuged at 12,000 × g at 4 °C for 15 min, and the supernatant was collected. For 3T3-L1 adipocytes, the adipocytes were treated with or without 50 ng/ml TNF-α or 3 μg IKKε plasmid or 4 μM siIKKε for 24 h and then treated with or without 10 μM ISO or 10 μM BJ for 24 h. Then the cells were lysed in a petri dish, scraped off, and centrifuged at 12,000 × g at 4 °C for 15 min before the supernatant was collected.
Glycerol or cAMP content in adipose tissue and 3T3-L1 adipocytes was determined by a glycerol assay kit (Nanjing Jiancheng Bioengineering Institute, Nanjing, China) or a mouse cAMP assay kit (Nanjing Jiancheng Bioengineering Institute, Nanjing, China). And concentrations were further standardized according to protein concentration.

db/db mice [2] = experiment: Fat depots weight (BAT, iWAT, eWAT; percentage of body weight); assay type: in vivo; set-up: key to BAT fat depot weight (Figure 4c): % of body weight (fat depot weight / body weight * 100%); conditions: db/db mice
Description: (§1) The lean wild type control and the db/db control mice were given equal vehicle volume (0.5% CMC-Na solution). All mice were monitored for food intake, body weight, and fasting blood glucose during the 35-day trial. Glucose tolerance test (GTT) and insulin resistance test (ITT) were performed at 4 and 5 weeks of treatment, respectively. Metabolic analysis was performed at 5 weeks of treatment. At the end of the study, blood samples were taken through the retroorbital venous sinus of mice, fat depots (brown fat, inguinal subcutaneous fat, epididymal fat, perirenal fat and mesenteric fat depot) were dissected, weighed, and immediately frozen in liquid nitrogen and stored at −80 °C until required. Weight of fat depots are expressed in percentage (fat depots weight /bodyweight * 100%).

db/db mice [3] = experiment: Body weight of db/db mice during 35-day treatment; assay type: in vivo; conditions: db/db mice
Description: as §1

db/db mice [4] = experiment: Glucose tolerance test (GTT); assay type: in vivo; set-up: blood glucose level / blood glucose AUC: unit not given here; conditions: BBR 150mg/kg; for blood glucose level, mean: mean of 10 mice
[5] = BBR 150mg/kg, serum, individual mice 1-6
[6] = 150 mg/kg, fasted state, individual mice
[7] = vs vehicle, BJ 75 and 150 mg/kg, BBR 150 mg/kg, Ibu 150 mg/kg
[8] = BBR 150mg/kg, individual mice 1-10, in %

COc1ccc2cc3[n+](cc2c1OC)CCc1cc2c(cc1-3)OCO2 [BBR, Berberine chloride dihydrate]
ADPN (Figure 4j) (db/db mice [1]; [5]): 531.25 and 533.16 and 569.22 and 520.27 and 517.83 and 573.58 | FFA (Figure 4g) (db/db mice [1]; [5]): 783.9 and 765.7 and 789.7 and 738.2 and 717.7 and 741.1 | HDL-C (Figure 4i) (db/db mice [1]; [5]): 2.5 and 2.8 and 2.4 and 2.7 and 3 | LDL-C (Figure 4h) (db/db mice [1]; [5]): 4.79 and 4.96 and 3.72 and 5.17 and 5.15 | Serum CHO (db/db mice [1]; [6]): 4 mmol/L and 4.5 mmol/L and 5.2 mmol/L and 4.6 mmol/L and 4.2 mmol/L | Serum TG (db/db mice [1]; [6]): 1.66 mmol/L and 1.22 mmol/L and 1.5 mmol/L and 1 mmol/L and 0.96 mmol/L and 1.18 mmol/L | Serum levels of CHO, TG, FFA and LDL-C (db/db mice [1]; [7]): decreased | Serum levels of HDL-C and adiponectin (ADPN) (db/db mice [1]; [7]): increased | Oil Red O staining of differentiated 3T3-L1 adipocytes spectrophotometric analysis (3T3-L1 adipocytes): 0.6307 O.D. and 0.6591 O.D. and 0.6319 O.D. and 0.6294 O.D. and 0.6584 O.D. and 0.6194 O.D. | cAMP levels in eWAT (cAMP; db/db mice, isoproterenol stimulation): increased the cAMP levels | cAMP levels in eWAT (Figure 4l) (cAMP; db/db+ISO+BBR 150mg/kg, individual samples 1-6): 0.3703 and 0.3189 and 0.32 and 0.3561 and 0.3523 and 0.3716 | BAT fat depot weight (Figure 4c) (db/db mice [2]; BBR 150mg/kg, individual mice 1-10): 2.4015 and 0.6109 and 1.4913 and 1.4054 and 1.8804 and 2.4038 and 1.1343 and 1.618 and 1.1772 and 2.0775 | eWAT fat depot weight (Figure 4c) (db/db mice [2]; [8]): 2.6561 and 3.1311 and 2.7778 and 2.6199 and 2.8014 and 3.2406 and 2.7924 and 3.779 and 2.6477 and 2.5027 | iWAT fat depot weight (Figure 4c) (db/db mice [2]; [8]): 3.5734 and 2.9857 and 2.7524 and 3.658 and 3.8567 and 3.8981 and 3.3728 and 3.0795 and 1.8382 and 2.8305 | Fat depots weight / body weight (db/db mice [2]; 150 mg/kg for 35 days, individual mice, 150 mg/kg): 19.7808% and 22.3551% and 14.9978% and 19.6619% and 20.7394% and 16.7296% and 16.0902% and 17.3833% and 23.2726% and 23.7021% | Fat depots weight compared with vehicle (db/db mice [2]; BJ 75 and 150 mg/kg, BBR 150 mg/kg, Ibu 150 mg/kg): lower fat depots weight than vehicle-treated db/db mice | Body weight (db/db mice [3]; 150 mg/kg gavage once per day, day 1, individual mice, 150 mg/kg): 41 grams and 40 grams and 42 grams and 36 grams and 39 grams and 37 grams | Body weight (db/db mice [3]; 150 mg/kg gavage once per day, day 4, individual mice, 150 mg/kg): 40 grams and 41 grams and 37 grams and 39 grams | Body weight (db/db mice [3]; 150 mg/kg gavage once per day, day 7, individual mice, 150 mg/kg): 42 grams and 43 grams and 37 grams and 38 grams and 39 grams and 41 grams | Body weight (db/db mice [3]; 150 mg/kg gavage once per day, day 10, individual mice, 150 mg/kg): 42 grams and 43 grams and 44 grams and 38 grams and 39 grams and 40 grams | Body weight (db/db mice [3]; 150 mg/kg gavage once per day, day 13, individual mice, 150 mg/kg): 43 grams and 44 grams and 38 grams and 39 grams and 41 grams | Body weight (db/db mice [3]; 150 mg/kg gavage once per day, day 16, individual mice, 150 mg/kg): 45 grams and 43 grams and 44 grams and 38 grams and 39 grams and 42 grams and 41 grams | Body weight (db/db mice [3]; 150 mg/kg gavage once per day, day 19, individual mice, 150 mg/kg): 44 grams and 43 grams and 37 grams and 40 grams and 42 grams | Body weight (db/db mice [3]; 150 mg/kg gavage once per day, day 22, individual mice, 150 mg/kg): 42 grams and 45 grams and 41 grams and 39 grams and 43 grams and 44 grams | Body weight (db/db mice [3]; 150 mg/kg gavage once per day, day 25, individual mice, 150 mg/kg): 42 grams and 46 grams and 43 grams and 38 grams and 39 grams and 44 grams and 40 grams and 45 grams | Body weight (db/db mice [3]; 150 mg/kg gavage once per day, day 28, individual mice, 150 mg/kg): 44 grams and 47 grams and 43 grams and 39 grams and 45 grams and 46 grams | Body weight (db/db mice [3]; 150 mg/kg gavage once per day, day 31, individual mice, 150 mg/kg): 46 grams and 48 grams and 49 grams and 41 grams and 42 grams and 47 grams and 43 grams and 45 grams | Body weight (db/db mice [3]; 150 mg/kg gavage once per day, day 34, individual mice, 150 mg/kg): 48 grams and 46 grams and 50 grams and 51 grams and 43 grams and 47 grams and 45 grams | Average body weight gain (db/db mice [3]; 150 mg/kg gavage once per day, day 35, mean ± SD): 7.6 ± 0.8 g | Body weight gain in 5 weeks (db/db mice [3]; 150 mg/kg gavage once per day, individual mice, 150 mg/kg): 8 grams and 7 grams and 6 grams and 9 grams | Body weight compared with vehicle (db/db mice [3]; 5 weeks, BJ 75 and 150 mg/kg, BBR 150 mg/kg, Ibu 150 mg/kg): lower body weight than the db/db mice treated with the vehicle | blood glucose level (db/db mice [4]; individual mice, time column 1 of 7 (time not printed)): 16.4 and 13.5 and 14.2 and 17.7 and 15.0 and 13.4 and 16.8 | blood glucose level (db/db mice [4]; individual mice, time column 2 of 7 (time not given)): 28.7 and 28.8 and 32.6 and 33.3 | blood glucose level (db/db mice [4]; individual mice, time column 3 of 7 (time not given)): 31.2 and 22.4 and 33.3 and 29.2 | blood glucose level (db/db mice [4]; individual mice, time column 4 of 7 (time not given)): 27.9 and 29.2 and 23.4 and 32.4 and 30.4 | blood glucose level (db/db mice [4]; individual mice, time column 5 of 7 (time not given)): 28.4 and 22.4 and 33.3 and 28.6 | blood glucose level (db/db mice [4]; individual mice, time column 6 of 7 (time not given)): 23.4 and 21.0 and 20.5 | blood glucose level (db/db mice [4]; individual mice, time column 7 of 7 (time not printed)): 17.7 and 16.7 and 22.7 and 19.6 and 20.9 | blood glucose level, mean (db/db mice [4]; time column 1 of 7 (time not printed)): 15 mmol/L | blood glucose level, mean (db/db mice [4]; time column 2 of 7 (time not given)): 30.7 mmol/L | blood glucose level, mean (db/db mice [4]; time column 3 of 7 (time not given)): 28.4 mmol/L | blood glucose level, mean (db/db mice [4]; time column 4 of 7 (time not given)): 27.7 mmol/L | blood glucose level, mean (db/db mice [4]; time column 6 of 7 (time not given)): 22.6 mmol/L | blood glucose level, mean (db/db mice [4]; time column 7 of 7 (time not printed)): 20.1 mmol/L | blood glucose AUC (db/db mice [4]; Figure 5d, individual mice): 3443.25 and 3088.5 and 2416.5 and 3051.75 and 2479.5 and 3425.25 and 2977.5 and 2793.75 and 3132 and 3001.5
